Laboratory results: PubChem BioAssay (NCI)
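Tested at 5 concentrations; 48 h exposure; 96-well plates; endpoints linearly interpolated, else capped at highest concentration. TGI: concentration producing complete growth inhibition.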

How the values were obtained:
Experiment in all cases: NCI tumour cell line growth inhibition, 48 h
ACHN renal = tested on: ACHN renal
HL-60(TB) leukemia = tested on: HL-60(TB) leukemia
HOP-92 NSCLC = tested on: HOP-92 NSCLC
K-562 leukemia = tested on: K-562 leukemia
LOX IMVI melanoma = tested on: LOX IMVI melanoma
OVCAR-4 ovarian = tested on: OVCAR-4 ovarian
RPMI-8226 leukemia = tested on: RPMI-8226 leukemia
SK-MEL-2 melanoma = tested on: SK-MEL-2 melanoma
SK-OV-3 ovarian = tested on: SK-OV-3 ovarian
MCF7 breast = tested on: MCF7 breast
MDA-MB-231 breast = tested on: MDA-MB-231 breast
MDA-MB-435 = tested on: MDA-MB-435
PC-3 prostate = tested on: PC-3 prostate

Row | Structure (SMILES) | TGI (ACHN renal) [µM] | TGI (HL-60(TB) leukemia) [µM] | TGI (HOP-92 NSCLC) [µM] | TGI (K-562 leukemia) [µM] | TGI (LOX IMVI melanoma) [µM] | TGI (OVCAR-4 ovarian) [µM] | TGI (RPMI-8226 leukemia) [µM] | TGI (SK-MEL-2 melanoma) [µM] | TGI (SK-OV-3 ovarian) [µM] | TGI (MCF7 breast) [µM] | TGI (MDA-MB-231 breast) [µM] | TGI (MDA-MB-435) [µM] | TGI (PC-3 prostate) [µM]
1 | CCOP1(=O)C=C(C)C(Cl)=C(C)C1 (centres undefined) | 72.2 | 53.9 | 68.3 | 90.5 | 50.4 | 90.9 | 62.6 | 50.4 | > 100 |  |  |  | 
2 | C[C@]12C[C@@H](OC(=O)[C@]1(C)O)[C@@H]([C@]1(O)CC[C@H]3[C@@H]4C[C@H]5O[C@]56C[C@H]5O[C@H]5C(=O)[C@]6(C)[C@H]4CC[C@@]31C)C2 | > 50 | > 50 | > 50 | > 50 |  | > 50 | > 50 | > 50 | > 50 | > 50 | > 50 | > 50 | > 50
3 | Cc1ccc2nc(N/N=C/c3sccc3C)cc(C)c2c1 | > 100 | > 100 | > 100 | > 100 | > 100 | > 100 |  | > 100 | > 100 | > 100 | 62.2 | > 100 | > 100
4 | COc1ccc(Oc2cccc(C3C4C(=O)N(c5ccc(C)c(Cl)c5)C(=O)C4ON3C(C(N)=O)c3ccccc3)c2)cc1 (centres undefined) | > 50 | > 50 | > 50 | > 50 | > 50 | > 50 |  | 38.3 | > 50 | 47.9 | > 50 | > 50 | > 50
5 | CC1=C(O)C2=C(C(=O)C1=O)[C@@H](C)CC[C@@H]2[C@@H](C)C/C=C/C(C)(C)O | 98 | 71.3 |  | > 100 | > 100 |  | 56.3 | > 100 | > 100 | > 100 | > 100 | > 100 | > 100
6 | O=[N+]([O-])/C(C(Cl)=C(Cl)Cl)=C(/Cl)SCc1ccccc1 | 9.06 | 0.437 | 9.01 | 3.36 | 23.4 | 18.6 |  | 47.4 | 35.6 | 16 | 4.32 | 5.12 | 31.4
7 | CCOC(=O)C1(F)S(=O)(=O)OCCOS1(=O)=O | > 100 |  |  |  | > 100 | > 100 | > 100 | > 100 | > 100 | > 100 |  | > 100 | > 100
8 | CCOC(=O)NNC(=O)NCc1cccc(CNC(=O)NNC(=O)OCC)c1 |  | > 100 |  | > 100 | > 100 | > 100 | > 100 | > 100 | > 100 | > 100 | > 100 | > 100 | > 100
9 | CC1CN=C(N(Cc2ccccc2)C(=O)Nc2ccc(Cl)c(Cl)c2)S1 (centres undefined) | 75 | > 10 | 54.5 | > 100 | > 100 | > 100 | > 100 | 68.3 | > 100 | > 100 | 86.6 |  | > 100
10 | O=[N+]([O-])c1ccc(-c2nc3ccc(Cl)cc3[nH]2)cc1 | > 100 |  | > 100 |  | > 100 | > 100 | > 100 |  | > 100 | > 100 | > 100 | > 100 | > 100
11 | O=c1c2cc(S(=O)(=O)O)ccc2nc(COc2ccc(Oc3ccc(Cl)cc3Cl)cc2)n1-c1ccc(Oc2ccc(Cl)cc2)cc1Cl | 56.6 | 76 | 31.4 | 83.1 | 30.2 | 73.6 | 65.4 | 32.2 | 49.2 | 40.6 |  | 39.6 | > 100
12 | CCOC(=O)C(C(=O)OCC)=C1NC2(c3ccccc3Nc3ccccc32)C(C#N)S1 (centres undefined) | 52.8 | 55.5 | 15.6 | 28.4 | 26.5 | 18.5 | 7.07 | 25.5 | 53.8 | 13.3 |  | 20.6 | 16.8
13 | O=C(NC1CCN(Cc2ccccc2)CC1)c1ccc(I)cc1 | > 100 | > 100 | > 100 | > 100 | > 100 | > 100 | > 100 | > 100 | > 100 |  | > 100 | > 100 | > 100
14 | O=C(/C=C/c1ccccc1)Oc1ccc(C(=O)/C=C/c2ccc(Cl)cc2)cc1 | > 100 | > 100 |  | > 100 |  |  | > 100 | > 100 | > 100 | > 100 | > 100 | > 100 | > 100
15 | COc1ccc(/C=N/n2c(C)n[nH]c2=O)c(OC)c1 | > 100 |  |  | > 100 |  | > 100 | > 100 | > 100 | > 100 | > 100 | > 100 | > 100 | > 100
16 | CC(N)Cc1ccc(Cl)c(Cl)c1 (centres undefined) | > 84.6 | 42.4 | 57.4 | 44 | > 68.5 | > 100 | > 84.6 | 37.6 | > 100 |  |  |  | 
17 | COC(=O)c1c(C)n([O-])c2cc(Cl)c(Cl)cc2[n+]1=O | 62.8 | 50.2 |  | > 100 | 27.8 | 52.5 | 19.3 | 82.1 | 40 | > 100 | 67.2 | 62.8 | > 100
18 | O=C(c1ccccc1)N(C(=O)c1ccccc1)c1nc(SCc2ccccc2)ns1 | > 100 | 52.6 | 73.6 | > 100 | 60.4 | > 100 | 56.6 | 49.5 | > 100 | > 100 |  | 91.8 | 71
19 | Oc1ccc2cc(Br)ccc2c1-c1c(O)ccc2ccc(Br)cc12 | 28 | 38.2 |  | 35.8 |  |  |  | 31.4 | 24.6 | 28.8 | 21.6 | 31.1 | 25.3
20 | COC(=O)c1ccc(S)c(S(=O)(=O)Nc2n[nH]c(N)n2)c1 | > 100 | > 100 | > 100 | > 100 | > 100 | > 100 | > 100 | > 100 |  |  | > 100 | > 100 | > 100
